Data published in patent publication US12331035B2, “Bicyclic compound and use thereof” (SK BIOPHARMACEUTICALS CO., LTD., priority 2019, dated 2025).

Target: T1, PRMT5-MEP50 enzyme complex (Homo sapiens, UniProt O14744)
T1 construct: purchased BPS Bioscience (USA) 51045
Experiment: In vitro PRMT5 enzyme activity assay (methylation of histone H4 arginine H4R3, ELISA absorbance at 450 nm)
Type: biochemical
Details: S-adenosylmethionine, histone H4 peptide, 2 hours at room temperature, 8 points 10 μM to 0.128 nM
Description: Method for Measuring Enzyme Activity
In vitro assay: PRMT5-MEP50 enzyme complex, cofactor S-adenosylmethionine (SAM) and histone H4 peptide were reacted in vitro, and methylation of arginine (H4R3) —which is the third amino acid of histone H4—was measured in order to measure the enzyme activity of PRMT5.
Reagents: PRMT5-MEP50 enzyme complex (Catalog No. 51045), blocking buffer (52100-B), histone methyltransferase reaction buffer 2 (4×HMT assay buffer 2, Catalog No. 52170), and primary antibody (primary antibody 4-3, Catalog No. 52150) were purchased from BPS Bioscience (USA). The histone H4 peptide (1-20 amino acids) was custom made by Komabiotech (Korea) and used. S-adenosylmethionine was purchased from NEB (New England Biolabs, USA, Catalog No. B9003S). Plates for coating histone H4 peptide, washing buffer and color development reagent were purchased from the following vendors: Plate (Immobilizer™-Amino Plate, NUNC, Denmark, Catalog No. 436023), carbonate-bicarbonate buffer (Sigma-Aldrich, USA, Catalog No. C3041), washing buffer (10×TBST, Biosesang, Korea, Catalog No. T2005), TMB ELISA substrate (Abcam, UK, Catalog No. ab210902), horseradish peroxidase (HRP)-conjugated antibody (Abcam, UK, Catalog No. ab6721).
Experimental procedure: The histone H4 peptide was diluted with carbonate-bicarbonate buffer and prepared to 100 μg/mL, and then dispensed onto the plate per 100 μL and reacted at 37° C. for 1 hour. PRMT5-MEP50 enzyme complex and S-adenosylmethionine were diluted with histone methyltransferase reaction buffer to prepare 5 μg/mL and 2 μM, respectively, and then 20 μL of PRMT5-MEP50 enzyme complex and 25 μL of S-adenosylmethionine were dispensed onto the plate prepared above. 5 μL of the compound diluted with 10% dimethyl sulfoxide solution was added thereto and reacted at room temperature for 2 hours (final volume=50 μL). The concentration of the compound was diluted 1:5 from 10 μM until the lowest concentration of 0.128 nM, and 8 points were used for the test. After preparing the primary antibody by diluting 1:2000 with blocking buffer, 100 μL was added to the plate and reacted at room temperature for 1 hour. After preparing horseradish peroxidase-conjugated antibody by diluting 1:10,000 with blocking buffer, 100 μL was added to the plate and reacted at room temperature for 1 hour. 100 μL of TMB substrate was added and reacted for 3 minutes at room temperature, and 100 μL of 1 N sulfuric acid was then added to terminate the reaction. Then, the absorbance at 450 nm was measured to calculate the IC50 value of the compound. (+++: 1 to 100 nM, ++: greater than 100 to 1,000 nM, +: greater than 1,000 to 10,000 nM)

T1 sequence (O14744 2-637 limits assumed): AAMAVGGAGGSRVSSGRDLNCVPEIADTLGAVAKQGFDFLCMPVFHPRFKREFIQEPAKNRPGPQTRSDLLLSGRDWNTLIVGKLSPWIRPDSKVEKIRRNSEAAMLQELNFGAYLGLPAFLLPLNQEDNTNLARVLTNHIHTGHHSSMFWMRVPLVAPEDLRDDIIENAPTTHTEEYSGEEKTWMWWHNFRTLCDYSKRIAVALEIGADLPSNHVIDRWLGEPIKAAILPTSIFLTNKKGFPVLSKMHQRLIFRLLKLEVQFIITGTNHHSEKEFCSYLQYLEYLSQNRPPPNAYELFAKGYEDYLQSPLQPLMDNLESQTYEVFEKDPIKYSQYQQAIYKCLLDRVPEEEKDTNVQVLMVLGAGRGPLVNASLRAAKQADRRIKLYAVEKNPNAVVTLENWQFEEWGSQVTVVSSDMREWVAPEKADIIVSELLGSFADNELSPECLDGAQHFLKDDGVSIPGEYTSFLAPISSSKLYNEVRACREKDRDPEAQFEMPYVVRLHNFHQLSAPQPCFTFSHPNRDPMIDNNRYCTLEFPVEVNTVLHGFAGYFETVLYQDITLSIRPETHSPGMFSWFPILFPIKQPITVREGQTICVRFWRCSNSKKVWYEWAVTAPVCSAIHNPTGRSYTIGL
T1 sequence (Q9BQA1 2-342 partner limits assumed): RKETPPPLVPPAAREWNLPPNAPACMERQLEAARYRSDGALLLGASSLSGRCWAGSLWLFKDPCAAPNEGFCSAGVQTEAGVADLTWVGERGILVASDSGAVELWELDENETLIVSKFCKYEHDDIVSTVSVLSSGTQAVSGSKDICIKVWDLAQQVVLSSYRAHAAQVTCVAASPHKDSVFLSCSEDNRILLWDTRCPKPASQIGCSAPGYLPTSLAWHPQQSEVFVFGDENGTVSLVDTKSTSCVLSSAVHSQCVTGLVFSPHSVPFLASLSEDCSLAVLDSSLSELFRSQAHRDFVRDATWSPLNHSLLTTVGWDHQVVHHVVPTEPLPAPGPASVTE

CN1CCN(c2ccc3c(c2)CCN(C[C@H](O)CN2CCc4ccccc4C2)C3=O)CC1=O [Example 55, 2-[(2R)-3-(3,4-dihydro-1H-isoquinolin-2-yl)-2-hydroxy-propyl]-6-(4-methyl-3-oxo-piperazin-1-yl)-3,4-dihydroisoquinolin-1-one] and CN1CCCN(c2ccc3c(c2)CCN(C[C@H](O)CN2CCc4ccccc4C2)C3=O)CC1=O [Example 79, 2-[(2R)-3-(3,4-dihydro-1H-isoquinolin-2-yl)-2-hydroxy-propyl]-6-(4-methyl-3-oxo-1,4-diazepan-1-yl)-3,4-dihydroisoquinolin-1-one] fall in the same range of IC50: 1 to 100 nM for the first, 1 to 100 nM for the second.

CC(C)(C)OC(=O)N1CC=C(c2ccc3c(c2)CCN(C[C@H](O)CN2CCc4ccccc4C2)C3=O)CC1 [Example 56, tert-butyl 4-[2-[(2R)-3-(3,4-dihydro-1H-isoquinolin-2-yl)-2-hydroxy-propyl]-1-oxo-3,4-dihydroisoquinolin-6-yl]-3,6-dihydro-2H-pyridine-1-carboxylate] and CC(=O)N1CC=C(c2ccc3c(c2)CCN(C[C@H](O)CN2CCc4ccccc4C2)C3=O)CC1 [Example 61, 6-(1-acetyl-3,6-dihydro-2H-pyridin-4-yl)-2-[(2R)-3-(3,4-dihydro-1H-isoquinolin-2-yl)-2-hydroxy-propyl]-3,4-dihydroisoquinolin-1-one] fall in the same range of IC50: 1 to 100 nM for the first, 1 to 100 nM for the second.

O=C1c2ccc(C3=CCNCC3)cc2CCN1C[C@H](O)CN1CCc2ccccc2C1 [Example 57, 2-[(2R)-3-(3,4-dihydro-1H-isoquinolin-2-yl)-2-hydroxy-propyl]-6-(1,2,3,6-tetrahydropyridin-4-yl)-3,4-dihydroisoquinolin-1-one] and O=C1c2ccc(N3CCNCC3)cc2CCN1C[C@H](O)CN1CCc2ccccc2C1 [Example 58, 2-[(2R)-3-(3,4-dihydro-1H-isoquinolin-2-yl)-2-hydroxy-propyl]-6-piperazin-1-yl-3,4-dihydroisoquinolin-1-one] fall in the same range of IC50: 1 to 100 nM for the first, 1 to 100 nM for the second.

First: CS(=O)(=O)N1CCN(c2ccc3c(c2)CCN(C[C@H](O)CN2CCc4ccccc4C2)C3=O)CC1 [Example 59, 2-[(2R)-3-(3,4-dihydro-1H-isoquinolin-2-yl)-2-hydroxy-propyl]-6-(4-methylsulfonylpiperazin-1-yl)-3,4-dihydroisoquinolin-1-one]
Second: CC(C)N1CCN(c2ccc3c(c2)CCN(C[C@H](O)CN2CCc4ccccc4C2)C3=O)CC1 [Example 64, [(2R)-3-(3,4-dihydro-1H-isoquinolin-2-yl)-2-hydroxy-propyl]-6-(4-isopropylpiperazin-1-yl)-3,4-dihydroisoquinolin-1-one]
The IC50 of the first is higher: 100 to 1000 nM for the first, 1 to 100 nM for the second.

Compared with COC(=O)N1CCN(c2ccc3c(c2)CCN(C[C@H](O)CN2CCc4ccccc4C2)C3=O)CC1 [Example 60, methyl 4-[2-[(2R)-3-(3,4-dihydro-1H-isoquinolin-2-yl)-2-hydroxy-propyl]-1-oxo-3,4-dihydroisoquinolin-6-yl]piperazine-1-carboxylate], CCOC(=O)N1CCN(c2ccc3c(c2)CCN(C[C@H](O)CN2CCc4ccccc4C2)C3=O)CC1 [Example 65, ethyl 4-[2-[(2R)-3-(3,4-dihydro-1H-isoquinolin-2-yl)-2-hydroxy-propyl]-1-oxo-3,4-dihydroisoquinolin-6-yl]piperazine-1-carboxylate] is higher in IC50: 100 to 1000 nM for the first, 1000 to 10000 nM for the second. The first is the more potent here.

O=C1c2ccc(N3CCN(C(=O)C(F)(F)F)CC3)cc2CCN1C[C@H](O)CN1CCc2ccccc2C1 [Example 62, 2-[(2R)-3-(3,4-dihydro-1H-isoquinolin-2-yl)-2-hydroxy-propyl]-6-[4-(2,2,2-trifluoroacetyl)piperazin-1-yl]-3,4-dihydroisoquinolin-1-one] and CC(C)(C)C(=O)N1CCN(c2ccc3c(c2)CCN(C[C@H](O)CN2CCc4ccccc4C2)C3=O)CC1 [Example 71, 2-[(2R)-3-(3,4-dihydro-1H-isoquinolin-2-yl)-2-hydroxy-propyl]-6-[4-(2,2-dimethylpropanoyl)piperazin-1-yl]-3,4-dihydroisoquinolin-1-one] fall in the same range of IC50: 1 to 100 nM for the first, 1 to 100 nM for the second.

First: CC(C)(C)OC(=O)N1CCC(c2ccc3c(c2)CCN(C[C@H](O)CN2CCc4ccccc4C2)C3=O)CC1 [Example 63, tert-butyl 4-[2-[(2R)-3-(3,4-dihydro-1H-isoquinolin-2-yl)-2-hydroxy-propyl]-1-oxo-3,4-dihydroisoquinolin-6-yl]piperidine-1-carboxylate]
Second: CC(=O)N1CCC(c2ccc3c(c2)CCN(C[C@H](O)CN2CCc4ccccc4C2)C3=O)CC1 [Example 67, 6-(1-acetyl-4-piperidyl)-2-[(2R)-3-(3,4-dihydro-1H-isoquinolin-2-yl)-2-hydroxy-propyl]-3,4-dihydroisoquinolin-1-one]
The IC50 of the first is lower: 100 to 1000 nM for the first, 1000 to 10000 nM for the second.

COC1CCN(Cc2ccc3c(c2)CCN(C[C@H](O)CN2CCc4ccccc4C2)C3=O)CC1 [Example 66, 2-[(2R)-3-(3,4-dihydro-1H-isoquinolin-2-yl)-2-hydroxy-propyl]-6-[(4-methoxy-1-piperidyl)methyl]-3,4-dihydroisoquinolin-1-one] and CC(=O)N1CCN(Cc2ccc3c(c2)CCN(C[C@H](O)CN2CCc4ccccc4C2)C3=O)CC1 [Example 68, 6-[(4-acetylpiperazin-1-yl)methyl]-2-[(2R)-3-(3,4-dihydro-1H-isoquinolin-2-yl)-2-hydroxy-propyl]-3,4-dihydroisoquinolin-1-one] fall in the same range of IC50: 1 to 100 nM for the first, 1 to 100 nM for the second.

Compared with CCC(=O)N1CCN(c2ccc3c(c2)CCN(C[C@H](O)CN2CCc4ccccc4C2)C3=O)CC1 [Example 69, 2-[(2R)-3-(3,4-dihydro-1H-isoquinolin-2-yl)-2-hydroxy-propyl]-6-(4-propanoylpiperazin-1-yl)-3,4-dihydroisoquinolin-1-one], CC(C)C(=O)N1CCN(c2ccc3c(c2)CCN(C[C@H](O)CN2CCc4ccccc4C2)C3=O)CC1 [Example 70, 2-[(2R)-3-(3,4-dihydro-1H-isoquinolin-2-yl)-2-hydroxy-propyl]-6-[4-(2-methylpropanoyl)piperazin-1-yl]-3,4-dihydroisoquinolin-1-one] is lower in IC50: 100 to 1000 nM for the first, 1 to 100 nM for the second. The second is the more potent here.

First: CC(C)(C)OC(=O)N1CC2CC1CN2c1ccc2c(c1)CCN(C[C@H](O)CN1CCc3ccccc3C1)C2=O (stereo partly drawn) [Example 72, tert-butyl 5-[2-[(2R)-3-(3,4-dihydro-1H-isoquinolin-2-yl)-2-hydroxy-propyl]-1-oxo-3,4-dihydroisoquinolin-6-yl]-2,5-diazabicyclo[2.2.1]heptane-2-carboxylate]
Second: CC(C)(C)OC(=O)N1CCCN(c2ccc3c(c2)CCN(C[C@H](O)CN2CCc4ccccc4C2)C3=O)CC1 [Example 78, tert-butyl 4-[2-[(2R)-3-(3,4-dihydro-1H-isoquinolin-2-yl)-2-hydroxy-propyl]-1-oxo-3,4-dihydroisoquinolin-6-yl]-1,4-diazepane-1-carboxylate]
The IC50 of the first is higher: 100 to 1000 nM for the first, 1 to 100 nM for the second. The second is the more potent here.

O=C1c2ccc(N3CC4CC3CO4)cc2CCN1C[C@H](O)CN1CCc2ccccc2C1 (stereo partly drawn) [Example 73, 2-[(2R)-3-(3,4-dihydro-1H-isoquinolin-2-yl)-2-hydroxy-propyl]-6-(2-oxa-5-azabicyclo[2.2.1]heptan-5-yl)-3,4-dihydroisoquinolin-1-one] and O=C1c2ccc(N3CC4CC3CN4)cc2CCN1C[C@H](O)CN1CCc2ccccc2C1 (stereo partly drawn) [Example 76, 6-(2,5-diazabicyclo[2.2.1]heptan-2-yl)-2-[(2R)-3-(3,4-dihydro-1H-isoquinolin-2-yl)-2-hydroxy-propyl]-3,4-dihydroisoquinolin-1-one] fall in the same range of IC50: 100 to 1000 nM for the first, 100 to 1000 nM for the second.

O=C1c2ccc(Cl)nc2CCN1C[C@H](O)CN1CCc2ccccc2C1 [Example 75, 2-chloro-6-[(2R)-3-(3,4-dihydro-1H-isoquinolin-2-yl)-2-hydroxy-propyl]-7,8-dihydro-1,6-naphthyridin-5-one] and O=C1c2ccc(NC3CCCNC3)cc2CCN1C[C@H](O)CN1CCc2ccccc2C1 (stereo partly drawn) [Example 77, 2-[(2R)-3-(3,4-dihydro-1H-isoquinolin-2-yl)-2-hydroxy-propyl]-6-(3-piperidylamino)-3,4-dihydroisoquinolin-1-one] fall in the same range of IC50: 100 to 1000 nM for the first, 100 to 1000 nM for the second.

In the case of CC(=O)N1CCCN(c2ccc3c(c2)CCN(C[C@H](O)CN2CCc4ccccc4C2)C3=O)CC1 [Example 80, 6-(4-acetyl-1,4-diazepan-1-yl)-2-[(2R)-3-(3,4-dihydro-1H-isoquinolin-2-yl)-2-hydroxy-propyl]-3,4-dihydroisoquinolin-1-one], the IC50 is reported as 1 to 100 nM.
